Experimental data reported in patent EP1144011B1, “PRODRUG COMPOUNDS AND PROCESS FOR PREPARATION THEREOF” (Coulter Pharmaceutical, Inc., priority 1998, dated 2000).
Square brackets hold non-standard residues; d marks the D form. Peptide text beside a SMILES is read from it. * marks the point of attachment. Sta = CC(C)C[C@H](N)[C@@H](O)CC(=O)O; Isovaleryl = CC(C)CC(=O)*

How the values were obtained:
Carcinoma cell trouase = assay: Inhibition and re-activation of carcinoma cell trouase; type: biochemical; settings: for inhibition of trouase: carcinoma cell trouase
[1] = Acute toxicity after intravenous injection in mice; type: in vivo; settings: iv bolus of 250 mg/kg (Dox-HCl eq.), three to five mice per group
[2] = system: adriamycin-resistant colorectal carcinoma CXF280/10; assay: Nude mouse xenograft model, CXF280/10; type: in vivo; settings: CXF280/10 xenograft
[3] = system: estrogen-dependent MCF-7/6 mammary tumor; assay: Nude mouse xenograft model, MCF-7/6; type: in vivo; settings: MCF-7/6 xenograft
[4] = system: MCF 7/6 (breast carcinoma) cell homogenate; assay: Compound screen: cleavage by MCF 7/6 cell homogenate, HPLC; type: biochemical
Experimental: Based on HPLC analysis of digestion products, activation of peptidyl-toxin to free toxin occurs via a series of enzyme catalyzed cleavage reactions. […] Initial endopeptidase cleavage occurs between the AA^3 (P1) and AA^2(P1') amino acids to yield alanyl-leucyl-doxorubicin.
(§1) Test samples were incubated at 37°C for 2 hr with the three different preparations of carcinoma enzyme and with whole blood, extracted with acetonitrile, and analyzed by HPLC using fluorescence detection. With few exceptions, results for carcinoma enzyme cleavage were the same for a partially purified fraction from HeLa cells, MFC 7/6 cell homogenate, or MCF 7/6 conditioned media.
MCF 7/6 cells were grown to confluence in a serum free medium containing DMEM:F12 (1:1), 50 mg/L bovine serum albumin, ITS-X, and Lipid Concentrate. 100 mL of cells were harvested by centrifugation at 4°C 10,000xg, for 20 min and decanting the supernatant. The pellet was resuspended in 2 mL phosphate buffered saline (Gibco) and centrifuged at 18,000xg for 10 min. […]
(§2) For HPLC analysis 50 µL of sample was injected on a 4.6 x 50 mm 2µ TSK Super-ODS chromatography column at 40°C and eluted with a 3 minute linear gradient from 26% to 68% acetonitrile in aqueous 20 mM ammonium acetate pH 4.5 buffer at 2 mL/min. Detection was by fluorescence using an excitation wavelength of 235 nm and an emission wavelength of 560 nm. […]

[5] = Supporting toxicity studies; settings: doses of up to 106.8 mg/kg
[6] = system: LS-174T human colorectal carcinoma; assay: Nude mouse xenograft model, LS-174T
trouase [7] = assay: Trouase cleavage of N-capped peptidyl-daunorubicin (defining characteristic); type: biochemical; settings: under appropriate assay conditions
Source text: Trouase is the enzyme which is thought to be critical for specific activation of prodrug at the target tissue.

[8] = Aggregation: filtration through Centricon filter units of different MWCO; type: physicochemical; settings: 17.4 µMol/ml in distilled water, 2 hr at 1500g; for 3000 MWCO Filt.: quantitated at λ475 nm
Source text: Sci., 73(6):766-770 (1984). Confalonieri, C. et al., The use of new laser particle sizer and shape analyser to detect and evaluate gelatinous microparticles suspended in reconstituted anthracycline infusion solutions, J. Pharmaceut. Biomed. Anal., 9(1):1-8 (1991). […] Each filter unit was centrifuged for 2 hr at 1500g force. […]

[9] = system: MCF 7/6 (breast carcinoma) conditioned media; assay: Compound screen: cleavage by MCF 7/6 conditioned media, HPLC; type: biochemical; settings: 2 hr at 37°C
Experimental: as §1
MCF 7/6 cells were grown to confluence in DMEM/F12 (1:1) medium containing 10 % fetal bovine serum, 0.05% (w/v) L-glutamine, 250 IU/mL penicillin, and 100 µg/mL streptomycin. Cells were then washed twice with phosphate buffered saline and incubated 24 hr at 5% CO2, 37°C, in DMEM/F12 (1:1), 0.02% BSA, ITS-X. The conditioned media was then decanted and, using a stirred cell apparatus with a YM10 (10.000 MW cutoff) ultrafiltration membrane(Millipore), exchanged once with 10 mM HEPES buffer, pH 7.2 and concentrated twenty-fold. This solution was stored in aliquots at-20°C for use in the compound screen. […]
as §2

trouase [10] = assay: Compound screen: cleavage by HeLa cell anion exchange fraction pool (partially purified trouase), HPLC; type: biochemical, human; settings: 2 hr at 37°C
Experimental: as §1
Thirty billion commercially produced HeLa Cells (human cervical carcinoma, Computer Cell Culture Center, Seneffe, Belgium) were homogenized with a sonicator and with a Dounce homogenizer in 108 mL of aqueous lysis solution. […]
A portion of the ultracentrifugation supernatant was diluted 2-fold with a 20 mM triethanolamine-HCl pH 7.2 buffer containing 0.01% (w/v) Triton X-100 and 0.02% (w/v) sodium azide (equilibration buffer). […] Its transformation into L-alanyl-L-leucyl-doxorubicin was quantified by reverse phase high performance liquid chromatography utilizing fluorescence detection of the anthracycline moiety. […]
as §2

[11] = subcutaneous LS174T tumors, five weekly intravenous doses of 57, 64 and 71 mg/kg, versus vehicle-treated controls

## manganese
Carcinoma cell trouase
  concentration that re-activates EDTA inactivated trouase: 50 to 1000 µM

## CC(C)CC(=O)N[C@H](C(=O)N[C@H](C(=O)N[C@@H](CC(C)C)[C@@H](O)CC(=O)N[C@@H](C)C(=O)N[C@@H](CC(C)C)[C@@H](O)CC(=O)O)C(C)C)C(C)C [pepstatin] (Isovaleryl-VV[Sta]A[Sta]-OH)
Carcinoma cell trouase
  inhibition of trouase: not

## COc1cccc2c1C(=O)c1c(O)c3c(c(O)c1C2=O)CC(O)(C(=O)CO)CC3OC1CC(NC(=O)C(CC(C)C)NC(=O)C(C)NC(=O)C(CC(C)C)NC(=O)CCNC(=O)CCCC(=O)O)C(O)C(C)O1 (stereo not drawn) [glutaryl βAlaLeuAlaLeu-Dox, Gl-β-Ala-Leu-Ala-Leu-Dox]
[1]
  survival: all animals survived up to 8 days

## O=C(O)CN(CCN(CC(=O)O)CC(=O)O)CC(=O)O [EDTA]
Carcinoma cell trouase
  inhibition of trouase: inhibited

## CO[C@@H]1[C@H](OC(=O)/C=C/C=C/C=C/C=C/C(=O)O)CC[C@]2(CO2)[C@H]1[C@@]1(C)O[C@@H]1CC=C(C)C [fumagillin]
Carcinoma cell trouase
  inhibition of trouase: not

## COc1cccc2c1C(=O)c1c(O)c3c(c(O)c1C2=O)CC(O)(C(=O)CO)CC3OC1CC(NC(=O)C(CC(C)C)NC(=O)C(C)NC(=O)C(CC(C)C)NC(=O)CCNC(=O)CCC(=O)O)C(O)C(C)O1 (stereo not drawn) [succinyl-β-Ala-Leu-Ala-Leu-Dox]
[2]
  inhibiting the growth of human tumors: efficacious
[3]
  inhibiting the growth of human tumors: efficacious
[4]; extracts of carcinoma cells or carcinoma cell conditioned media, two steps, at least two enzymes
  activation of peptidyl-toxin (digestion products by HPLC): converted to leucyl-doxorubicin
[5]
  kidney toxicity and myelosuppression: not observed
[1]
  survival: all animals survived up to 8 days
[6]; LS-174T xenograft
  inhibiting the growth of human tumors: efficacious
[6]; LS-174T xenograft model
  toxicity at efficacious doses: without significant toxicity
[6]; doses of 49, 57 and 64 mg/kg
  efficacy in inhibiting LS-174T tumor compared to doxorubicin at 3.0 mg/kg and saline: superior efficacy
[6]; repeat dosing, LS174T model
  body weight: Some dose-dependent body weight loss
[6]; repeat-dose levels and frequencies that demonstrated anti-tumor efficacy
  safety and tolerability: safe and well-tolerated
[6]; [11]
  Mean Day of Survival (MDS): significant, dose-dependent, replicable extension
  tumor volume: decreased size of the tumor

## CCCNC(=O)[C@H]1O[C@@H]1C(=O)N[C@H](C(=O)N1CCC[C@H]1C(=O)O)[C@@H](C)CC [CA074]
Carcinoma cell trouase
  inhibition of trouase: not

## CC(C)C[C@H](NC(=O)[C@H]1O[C@@H]1C(=O)O)C(=O)NCCCCN=C(N)N [E64]
Carcinoma cell trouase
  inhibition of trouase: not

## aminoethylbenzene-sufonate
Carcinoma cell trouase
  inhibition of trouase: not

## cupric cations
Carcinoma cell trouase
  re-activation of EDTA inactivated trouase: not

## cobalt
Carcinoma cell trouase
  concentration that re-activates EDTA inactivated trouase: 50 to 100 µM

## c1cnc2c(c1)ccc1cccnc12 [1,10-phenanthroline]
Carcinoma cell trouase
  inhibition of trouase: inhibited

## COc1cccc2c1C(=O)c1c(O)c3c(c(O)c1C2=O)C[C@@](O)(C(C)=O)C[C@@H]3O[C@H]1C[C@H](NC(=O)[C@H](CC(C)C)NC(=O)[C@H](C)NC(=O)[C@H](CC(C)C)NC(=O)CCNC(=O)CCC(=O)O)[C@H](O)[C@H](C)O1 [succinyl-βAlaLeuAlaLeu-Daunorubicin, Suc-β-Ala-Leu-Ala-Leu-Dnr]
Trouase [7]
  cleavage by trouase: readily cleaves

## CC(=O)N[C@@H](CC(C)C)C(=O)N[C@@H](CC(C)C)C(=O)N[C@H](C=O)CCCNC(=N)N [leupeptin]
Carcinoma cell trouase
  inhibition of trouase: not

## COc1cccc2c1C(=O)c1c(O)c3c(c(O)c1C2=O)C[C@@](O)(C(=O)CO)C[C@@H]3O[C@H]1C[C@H](N)[C@H](O)[C@H](C)O1 [doxorubicin]
[8]; passing through filter
  3000 MWCO Filt.: 81%
  10000 MWCO Filt.: 82%
  50000 MWCO Filt.: 93%
[8]; passing through filter, listed as Dox
  3000 MWCO Filt.: 81%
[8]; retained
  3000 MWCO Ret.: 10%
  10000 MWCO Ret.: 2%
  50000 MWCO Ret.: 0.5%
[6]; repeated administration
  Dose limiting toxicity (cardiotoxicity and myelosuppression), dose at which observed: ≥ 3 mg/kg

## zinc
Carcinoma cell trouase
  re-activation of EDTA inactivated trouase: not

## CC[C@H](C)[C@H](NC(=O)CCNC(=O)CCC(=O)O)C(=O)N[C@@H](C)C(=O)N[C@@H](CC(C)C)C(=O)N[C@H]1C[C@H](O[C@H]2C[C@](O)(C(C)=O)Cc3c(O)c4c(c(O)c32)C(=O)c2c(OC)cccc2C4=O)O[C@@H](C)[C@H]1O [succinyl-βAlalleAlaLeu-Daunorubicin]
Trouase [7]
  trouase activity relative to succinyl-βAlaLeuAlaLeu-Daunorubicin: at least twenty-fold less active

## COc1cccc2c1C(=O)c1c(O)c3c(c(O)c1C2=O)C[C@@](O)(C(C)=O)C[C@@H]3O[C@H]1C[C@H](NC(=O)[C@H](CC(C)C)NC(=O)[C@H](C)NC(=O)[C@H](CC(C)C)NC(=O)[C@H](C)NC(=O)CCC(=O)O)[C@H](O)[C@H](C)O1 [P2 L-alanine compound]
[9]
  extent of cleavage by conditioned medium versus the P2 β-alanine compound: about the same
[4]; 2 hr at 37°C
  extent (rate) of cleavage by cell homogenate versus the P2 β-alanine compound: 1.3 fold
Trouase [10]
  extent of cleavage with the partially purified trouase preparation versus the P2 β-alanine compound: 0.6 fold
